Converted amounts (≈) assume the structure as drawn. “And” between values parts separate entries of the source, which are not always exact repeats. Identical values can stand only once. Marks after values point to notes of the source that are not given here.
Experiments:
[1] = Bioassay ranking of the analogues tested; settings: M + R (MRSA and VRE combined)
MRSA = test: Broth microdilution MIC, Example 7 (NCL812 and analogues); type: cell-based, Staphylococcus aureus; settings: for activity against MRSA among analogues: MIC testing, two MRSA strains; for MRSA / MIC: bioassay ranking, MRSA; for MIC (μg/ml) at 24 hours, MRSA 1: isolate MRSA 1; for MIC (μg/ml) at 24 hours, MRSA 1 / MIC (μg/ml) at 24 hours, MRSA 2: 1st and 2nd replicate rows; for MIC (μg/ml) at 24 hours, MRSA 2: isolate MRSA 2; for MIC: Staphylococcus aureus, read-out: MRSA
Summary of the method: (§1)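 Values are MICs in μg/ml from broth microdilution per CLSI, with growth scored against a drug-free well.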

VRE = test: as above; type: cell-based, Enterococcus spp.; settings: for activity against VRE among analogues: MIC testing, two VRE strains; for VRE / MIC: bioassay ranking, VRE; for MIC (μg/ml) at 24 hours, VRE 1: isolate VRE 1; for MIC (μg/ml) at 24 hours, VRE 1 / MIC (μg/ml) at 24 hours, VRE 2: 1st and 2nd replicate rows; for MIC (μg/ml) at 24 hours, VRE 2: isolate VRE 2; for MIC: Enterococcus, read-out: VRE
Summary of the method: as §1

Pseudomonas aeruginosa = test: as above; type: cell-based; settings: 24 hours; 1st and 2nd replicate rows
Escherichia coli = test: as above; type: cell-based; settings: 24 hours; 1st and 2nd replicate rows

Compound | M + R [1] [µg/mL] | activity against MRSA among analogues (MRSA) | MRSA (MRSA) [µg/mL] | MIC (μg/ml) at 24 hours, MRSA 1 (MRSA) | MIC (μg/ml) at 24 hours, MRSA 2 (MRSA) | activity against VRE among analogues (VRE) | VRE (VRE) [µg/mL] | MIC (μg/ml) at 24 hours, VRE 1 (VRE) | MIC (μg/ml) at 24 hours, VRE 2 (VRE) | MIC (μg/ml) at 24 hours, P. aeruginosa (Pseudomonas aeruginosa) | MIC (μg/ml) at 24 hours, E. coli (Escherichia coli) [µg/mL] | MIC (MRSA) [µg/mL] | MIC (VRE) [µg/mL]
Cl.N=C(N/N=C/c1ccc(F)cc1)N/N=C/c1ccc(F)cc1 [NCL021] | 12 | greatest activity | 16 | 16 µg/mL | 16 µg/mL | greatest activity | 8 | 8 µg/mL | 8 µg/mL | >128 µg/mL | >128 |  | 
Cl.N=C(NN=Cc1cccc(F)c1)NN=Cc1cccc(F)c1 [NCL023] | 20 | greatest activity | 16 | 16 µg/mL | 16 µg/mL | greatest activity | 24 | 32 µg/mL | 16 µg/mL | >128 µg/mL | >128 |  | 
COc1cccc(C=NNC(=N)NN=Cc2cccc(OC)c2)c1.Cl [NCL029] | 32 | greatest activity | 32 | 32 µg/mL | 32 µg/mL | greatest activity | 32 | 32 µg/mL | 32 µg/mL | >128 µg/mL | >128 |  | 
Cl.N=C(N/N=C/c1ccc(C(F)(F)F)cc1)N/N=C/c1ccc(C(F)(F)F)cc1 [NCL035] | 10.5 | greatest activity | 16 | 16 µg/mL | 16 µg/mL | greatest activity | 5 | 8 µg/mL and 4 µg/mL | 4 µg/mL | >128 µg/mL | >128 |  | 
Cc1ccc(/C=N/NC(=N)N/N=C/c2ccc(C)cc2)cc1.Cl [NCL038] | 9 | greatest activity | 8 | 8** μg/ml | 8** μg/ml | greatest activity | 10 | 8** μg/ml and 16** μg/ml | 8** μg/ml | >128 µg/mL | >128 |  | 
Cc1ccccc1C=NNC(=N)NN=Cc1ccccc1C.Cl [NCL039] | 30 | greatest activity |  | 32 µg/mL and 64 µg/mL | 32 µg/mL | greatest activity | 20 | 32 µg/mL | 8 µg/mL | >128 µg/mL and >188 µg/mL | >128 |  | 
Cc1cccc(C=NNC(=N)NN=Cc2cccc(C)c2)c1.Cl [NCL040] | 8 | greatest activity | 8 | 8 µg/mL | 8 µg/mL | greatest activity | 8 | 8 µg/mL | 8 µg/mL | >128 µg/mL | >128 |  | 
Cl.N=C(N/N=C/c1cccc(Cl)c1)N/N=C/c1cccc(Cl)c1 [NCL054] | 3.5 | greatest activity | 3 | 4 µg/mL and 2 µg/mL | 2 µg/mL and 4 µg/mL | greatest activity | 4 | 4 µg/mL | 4 µg/mL | >128 µg/mL | >128 |  | 
CCC(=NNC(=N)NN=C(CC)c1ccc(Cl)cc1)c1ccc(Cl)cc1.Cl [NCL153] | 16 | greatest activity | 24 |  |  | greatest activity | 8 |  |  |  |  |  | 
C/C(=N\NC(=N)N/N=C(\C)c1ccc(Br)cc1)c1ccc(Br)cc1.Cl [NCL155] | 10 | greatest activity | 8 |  |  | greatest activity | 12 |  |  |  |  |  | 
Cl.N=C(NN=Cc1ccc(Cl)cc1N)NN=Cc1ccc(Cl)cc1N [NCL157, 2,2′-bis[(2-amino-4-chlorophenyl)methylene]carbonimidic Dihydrazide Hydrochloride] | 2.25 | greatest activity |  |  |  | greatest activity |  |  |  |  |  | 2 | 2.5
CC/C(=N\NC(=N)N/N=C(\CC)c1ccc(Cl)cc1O)c1ccc(Cl)cc1O [NCL158] | 4 | greatest activity |  |  |  | greatest activity |  |  |  |  |  | 4 (≈ 9.47 µM) | 4 (≈ 9.47 µM)
CC(O)Nc1cc(Cl)ccc1C=NNC(=N)NN=Cc1ccc(Cl)cc1NC(C)O.Cl (stereo not shown) [NCL168] | 40 | greatest activity |  |  |  | greatest activity |  |  |  |  |  |  | 
N=C(NN=Cc1ccc(Cl)cc1N)NN=Cc1ccc(Cl)cc1N [NCL169] | 40 | greatest activity |  |  |  | greatest activity | 32 |  |  |  |  |  | 
CC(=NNC(=N)NN=C(C)c1ccc(Cl)cc1O)c1ccc(Cl)cc1O.Cl [NCL173] | 17 | greatest activity | 16 |  |  | greatest activity | 18 |  |  |  |  |  | 
Cl.N=C(NN=Cc1ccc(Cl)cc1O)NN=Cc1ccc(Cl)cc1O [NCL174] | 25 | greatest activity | 32 |  |  | greatest activity | 18 |  |  |  |  |  | 
Cl.N=C(NN=C(CO)c1ccc(Cl)cc1)NN=C(CO)c1ccc(Cl)cc1 [NCL177] | 7 | greatest activity | 8 |  |  | greatest activity | 6 |  |  |  |  |  | 
Nc1nc(N/N=C/c2ccc(Cl)cc2)cc(N/N=C/c2ccc(Cl)cc2)n1 [NCL179, 4,6-bis(2-((E)-4-chlorobenzylidene)hydrazinyl)pyrimidin-2-amine] | 3 | greatest activity |  |  |  | greatest activity |  |  |  |  |  | 2 (≈ 5 µM) | 4 (≈ 9.99 µM)
Cl.[H]/N=C(/N)NN=C(CNN)c1ccc(Cl)cc1 [NCL190] | 28 | greatest activity | 24 |  |  | greatest activity | 32 |  |  |  |  |  | 

Reference: patent US10253002B2, “Compounds and methods of treating infections” (Neoculi Pty Ltd., priority 2013, dated 2019)
